Reference: patent publication US8765940B2 (priority 2009, dated 2014)

Biological target: PI3Kδ (Homo sapiens (Human), UniProt O00329)
Assay type: biochemical
Settings: PI3Kδ Alphascreen assay

Chain of PI3Kδ (O00329 whole entry): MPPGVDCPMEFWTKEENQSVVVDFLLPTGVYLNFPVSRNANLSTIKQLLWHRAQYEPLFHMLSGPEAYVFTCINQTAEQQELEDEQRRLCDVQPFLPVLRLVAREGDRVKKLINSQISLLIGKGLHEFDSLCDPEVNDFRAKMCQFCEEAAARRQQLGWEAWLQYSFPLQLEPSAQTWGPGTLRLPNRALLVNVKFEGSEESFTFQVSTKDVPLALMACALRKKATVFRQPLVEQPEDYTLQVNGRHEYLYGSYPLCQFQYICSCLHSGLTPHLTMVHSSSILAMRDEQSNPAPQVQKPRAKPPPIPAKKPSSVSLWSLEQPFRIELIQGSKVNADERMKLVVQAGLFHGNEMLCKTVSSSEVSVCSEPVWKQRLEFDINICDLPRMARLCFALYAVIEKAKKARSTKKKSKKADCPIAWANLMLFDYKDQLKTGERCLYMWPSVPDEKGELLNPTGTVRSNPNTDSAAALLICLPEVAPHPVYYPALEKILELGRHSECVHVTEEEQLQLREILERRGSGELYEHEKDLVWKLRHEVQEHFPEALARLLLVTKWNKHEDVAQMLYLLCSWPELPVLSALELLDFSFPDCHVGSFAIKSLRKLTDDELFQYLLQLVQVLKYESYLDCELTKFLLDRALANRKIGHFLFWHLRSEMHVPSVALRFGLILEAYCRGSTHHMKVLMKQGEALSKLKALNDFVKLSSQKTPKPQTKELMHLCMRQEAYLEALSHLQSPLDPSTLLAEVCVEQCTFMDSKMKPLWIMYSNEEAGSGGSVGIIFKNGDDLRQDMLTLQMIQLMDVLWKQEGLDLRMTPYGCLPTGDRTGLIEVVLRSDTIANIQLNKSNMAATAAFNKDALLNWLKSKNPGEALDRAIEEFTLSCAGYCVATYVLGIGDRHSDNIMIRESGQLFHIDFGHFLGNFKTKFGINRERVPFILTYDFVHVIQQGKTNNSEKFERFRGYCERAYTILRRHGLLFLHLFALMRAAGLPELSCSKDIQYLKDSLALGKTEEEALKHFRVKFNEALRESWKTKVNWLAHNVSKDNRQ
Chain of PI3Kδ (P27986 whole entry partner): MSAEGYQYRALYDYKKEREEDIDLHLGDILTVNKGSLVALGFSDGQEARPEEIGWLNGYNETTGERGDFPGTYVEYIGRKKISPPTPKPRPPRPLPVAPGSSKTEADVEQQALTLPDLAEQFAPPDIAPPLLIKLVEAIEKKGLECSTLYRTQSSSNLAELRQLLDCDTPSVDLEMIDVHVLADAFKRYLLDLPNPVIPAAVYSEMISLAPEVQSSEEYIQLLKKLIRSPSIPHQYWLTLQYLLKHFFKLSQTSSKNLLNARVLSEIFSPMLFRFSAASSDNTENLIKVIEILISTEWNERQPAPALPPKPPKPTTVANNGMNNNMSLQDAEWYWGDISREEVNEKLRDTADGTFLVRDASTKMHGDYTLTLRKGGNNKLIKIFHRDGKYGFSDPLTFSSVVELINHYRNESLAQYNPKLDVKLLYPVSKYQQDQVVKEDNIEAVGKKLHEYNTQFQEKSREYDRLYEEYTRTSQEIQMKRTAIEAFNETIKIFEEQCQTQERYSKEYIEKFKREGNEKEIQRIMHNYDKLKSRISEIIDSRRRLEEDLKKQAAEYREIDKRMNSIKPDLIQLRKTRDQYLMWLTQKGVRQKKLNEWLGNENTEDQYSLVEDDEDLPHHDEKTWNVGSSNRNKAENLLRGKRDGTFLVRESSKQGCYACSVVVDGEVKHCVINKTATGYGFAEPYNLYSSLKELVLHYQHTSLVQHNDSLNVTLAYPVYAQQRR

SMILES	Ki
Cc1c(-c2ccccn2)nc2cc(F)ccc2c1N1CC(C)(C)c2nc(Br)c(N3CCOCC3)cc21 [4-(5-bromo-3,3-dimethyl-6-(4-morpholinyl)-2,3-dihydro-1H-pyrrolo[3,2-b]pyridin-1-yl)-7-fluoro-3-methyl-2-(2-pyridinyl)quinoline]	33.3 nM
Cc1ccnc(-c2nc3ncccc3c(N3CC(C)(C)c4nc(Cl)c(N5CCOCC5)cc43)c2C)c1 [4-(5-chloro-3,3-dimethyl-6-(4-morpholinyl)-2,3-dihydro-1H-pyrrolo[3,2-b]pyridin-1-yl)-3-methyl-2-(4-methyl-2-pyridinyl)-1,8-naphthyridine]	68.7 nM
Cc1c(-c2ccccn2)nc2cc(F)ccc2c1N1CC(C)(C)c2nc(Cl)c(N3CCOCC3)cc21 [4-(5-chloro-3,3-dimethyl-6-(4-morpholinyl)-2,3-dihydro-1H-pyrrolo[3,2-b]pyridin-1-yl)-7-fluoro-3-methyl-2-(2-pyridinyl)quinoline]	3.16 nM
Cc1c(-c2ccccc2F)nc2cccc(F)c2c1N1CCS(=O)(=O)c2ccc(N3CCOCC3)cc21 [4-(5-fluoro-2-(2-fluorophenyl)-3-methyl-4-quinolinyl)-6-(4-morpholinyl)-3,4-dihydro-2H-1,4-benzothiazine 1,1-dioxide]	23.5 nM
Cc1c(-c2ccccn2)nc2cc(F)ccc2c1N1CC(C)(C)c2ncc(C3=CCOCC3)cc21 [4-(6-(3,6-dihydro-2H-pyran-4-yl)-3,3-dimethyl-2,3-dihydro-1H-pyrrolo[3,2-b]pyridin-1-yl)-7-fluoro-3-methyl-2-(2-pyridinyl)quinoline]	6.47 nM

The next lines start with the values.

Ki	SMILES
1260 nM	Cc1nc2ccc(Cl)cc2c(N2CCOc3ccc(N4CCOCC4)cc32)c1C [4-(6-chloro-2,3-dimethyl-4-quinolinyl)-6-(4-morpholinyl)-3,4-dihydro-2H-1,4-benzoxazine]
28 nM	COc1cc2nc(C)c(C)c(N3CCS(=O)(=O)c4ccc(N5CCOCC5)cc43)c2cc1Cl [4-(6-chloro-7-methoxy-2,3-dimethyl-4-quinolinyl)-6-(4-morpholinyl)-3,4-dihydro-2H-1,4-benzothiazine 1,1-dioxide]
351 nM	Cc1c(-c2ccccn2)nc2cc(F)ccc2c1N1CCOc2ccc(N3CCOCC3)cc21 [4-(7-fluoro-3-methyl-2-(2-pyridinyl)-4-quinolinyl)-6-(4-morpholinyl)-3,4-dihydro-2H-1,4-benzoxazine]
1430 nM	Cc1c(-c2ccccn2)nc2cc(F)ccc2c1N1CC(C)(C)c2ccc(-c3nc(N)ncc3Cl)cc21 [5-chloro-4-(1-(7-fluoro-3-methyl-2-(2-pyridinyl)-4-quinolinyl)-3,3-dimethyl-2,3-dihydro-1H-indol-6-yl)-2-pyrimidinamine]
890 nM	Cc1c(-c2ccccc2F)nc2cccc(Cl)c2c1N1CC(C)(C)c2ccc(N3CCOCC3)cc21 [5-chloro-4-(3,3-dimethyl-6-(4-morpholinyl)-2,3-dihydro-1H-indol-1-yl)-2-(2-fluorophenyl)-3-methylquinoline]
13.3 nM	Cc1c(-c2ccccn2)nc2cc(F)ccc2c1N1CC2(CCOCC2)c2nc(Cl)c(N3CCOCC3)cc21 [5′-chloro-1′-(7-fluoro-3-methyl-2-(2-pyridinyl)-4-quinolinyl)-6′-(4-morpholinyl)-1′,2,2′,3,5,6-hexahydrospiro[pyran-4,3′-pyrrolo[3,2-b]pyridine]]
14.7 nM	Cc1c(-c2cccc(=O)[nH]2)nc2cc(F)ccc2c1N1CC(C)(C)c2ncc(N3CCOCC3)cc21 [6-(4-(3,3-dimethyl-6-(4-morpholinyl)-2,3-dihydro-1H-pyrrolo[3,2-b]pyridin-1-yl)-7-fluoro-3-methyl-2-quinolinyl)-2(1H)-pyridinone]
121 nM	Cc1nc2c(C)cccc2c(N2CC3(CCOCC3)c3ccc(N4CCOCC4)cc32)c1C [6-(4-morpholinyl)-1-(2,3,8-trimethyl-4-quinolinyl)-1,2,2′,3′,5′,6′-hexahydrospiro[indole-3,4′-pyran]]
